In the first assay the target is ABL1 (human) (UniProt P00519). The assay is described as follows: radiometric filter-binding kinase assay, Kinase HotSpot. Particulars: compound 0.5 µM; ATP 10 µM.
Sequence of ABL1 (human) (P00519 whole entry, looked up): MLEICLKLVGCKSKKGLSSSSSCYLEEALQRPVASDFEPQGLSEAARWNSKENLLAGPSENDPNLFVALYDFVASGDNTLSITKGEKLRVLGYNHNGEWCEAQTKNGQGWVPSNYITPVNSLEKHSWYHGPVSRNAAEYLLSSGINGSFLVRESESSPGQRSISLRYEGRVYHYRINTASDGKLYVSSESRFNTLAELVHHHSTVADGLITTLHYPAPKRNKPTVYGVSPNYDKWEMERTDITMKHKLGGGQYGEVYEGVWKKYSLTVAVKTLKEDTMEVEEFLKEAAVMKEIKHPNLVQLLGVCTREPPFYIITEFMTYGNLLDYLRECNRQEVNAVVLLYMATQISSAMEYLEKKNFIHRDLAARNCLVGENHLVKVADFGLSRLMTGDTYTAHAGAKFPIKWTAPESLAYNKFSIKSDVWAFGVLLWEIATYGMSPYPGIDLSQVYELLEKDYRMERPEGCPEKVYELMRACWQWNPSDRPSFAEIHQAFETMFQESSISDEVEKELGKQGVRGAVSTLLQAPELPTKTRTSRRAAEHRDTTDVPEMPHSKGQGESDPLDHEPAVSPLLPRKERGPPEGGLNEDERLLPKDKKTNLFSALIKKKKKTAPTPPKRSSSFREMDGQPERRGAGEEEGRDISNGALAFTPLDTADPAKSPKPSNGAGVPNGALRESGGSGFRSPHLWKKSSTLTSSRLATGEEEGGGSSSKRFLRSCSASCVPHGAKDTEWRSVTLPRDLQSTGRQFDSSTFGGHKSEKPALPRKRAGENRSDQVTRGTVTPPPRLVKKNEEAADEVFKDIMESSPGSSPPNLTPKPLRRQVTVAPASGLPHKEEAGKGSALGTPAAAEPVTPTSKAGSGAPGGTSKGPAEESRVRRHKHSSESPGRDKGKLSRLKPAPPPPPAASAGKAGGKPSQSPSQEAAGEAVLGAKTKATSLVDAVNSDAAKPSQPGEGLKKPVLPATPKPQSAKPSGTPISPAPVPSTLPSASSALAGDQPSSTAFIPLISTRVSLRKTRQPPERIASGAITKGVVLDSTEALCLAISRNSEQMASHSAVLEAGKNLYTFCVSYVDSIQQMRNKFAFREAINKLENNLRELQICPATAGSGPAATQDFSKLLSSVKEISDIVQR
As to `O=C1NC(=O)/C(=C/c2ccc3c(c2)OC(F)(F)O3)S1`, the residual activity (usually the signal under treatment as a percentage of the control signal) is 98.5%.
Still for that read-out and setting: the value for `N#CC(C#N)=C(N)/C(C#N)=C/c1ccc(O)cc1` was 103%; that for `COc1cc2ncnc(Nc3cccc(Cl)c3)c2cc1OC` was 61.8%.

For another assay, the target named is AURKC (human) (UniProt Q9UQB9). Described as above. Particulars: compound 0.5 µM; ATP 10 µM.
For `O=C1NC(=O)/C(=C/c2ccc3c(c2)OC(F)(F)O3)S1`, the residual activity came to 98.1%.
Same read-out and setting: the value for `N#CC(C#N)=C(N)/C(C#N)=C/c1ccc(O)cc1` was 101%; that for `COc1cc2ncnc(Nc3cccc(Cl)c3)c2cc1OC` was 85.8%.

A further assay deals with BLK (human) (UniProt P51451). The description is as above. Particulars: compound 0.5 µM; ATP 10 µM.
As for `O=C1NC(=O)/C(=C/c2ccc3c(c2)OC(F)(F)O3)S1`, the residual activity was 99.2%.
The same measure, in the same setting: the figure for `N#CC(C#N)=C(N)/C(C#N)=C/c1ccc(O)cc1` is 101%; for `COc1cc2ncnc(Nc3cccc(Cl)c3)c2cc1OC` it is 68.2%.

The target in the next assay is BMX (human) (UniProt P51813). Described as above. Particulars: compound 0.5 µM; ATP 10 µM.
For `O=C1NC(=O)/C(=C/c2ccc3c(c2)OC(F)(F)O3)S1`, the residual activity was 99.6%.
Same read-out and setting: the value for `N#CC(C#N)=C(N)/C(C#N)=C/c1ccc(O)cc1` was 80%.
On the same count and under the same terms, the figure for `COc1cc2ncnc(Nc3cccc(Cl)c3)c2cc1OC` is 88.6%.

The target in a further assay is BTK (human) (UniProt Q06187). The assay is described as above. As to conditions: compound 0.5 µM; ATP 10 µM.
Sequence of BTK (human) (Q06187 whole entry, looked up): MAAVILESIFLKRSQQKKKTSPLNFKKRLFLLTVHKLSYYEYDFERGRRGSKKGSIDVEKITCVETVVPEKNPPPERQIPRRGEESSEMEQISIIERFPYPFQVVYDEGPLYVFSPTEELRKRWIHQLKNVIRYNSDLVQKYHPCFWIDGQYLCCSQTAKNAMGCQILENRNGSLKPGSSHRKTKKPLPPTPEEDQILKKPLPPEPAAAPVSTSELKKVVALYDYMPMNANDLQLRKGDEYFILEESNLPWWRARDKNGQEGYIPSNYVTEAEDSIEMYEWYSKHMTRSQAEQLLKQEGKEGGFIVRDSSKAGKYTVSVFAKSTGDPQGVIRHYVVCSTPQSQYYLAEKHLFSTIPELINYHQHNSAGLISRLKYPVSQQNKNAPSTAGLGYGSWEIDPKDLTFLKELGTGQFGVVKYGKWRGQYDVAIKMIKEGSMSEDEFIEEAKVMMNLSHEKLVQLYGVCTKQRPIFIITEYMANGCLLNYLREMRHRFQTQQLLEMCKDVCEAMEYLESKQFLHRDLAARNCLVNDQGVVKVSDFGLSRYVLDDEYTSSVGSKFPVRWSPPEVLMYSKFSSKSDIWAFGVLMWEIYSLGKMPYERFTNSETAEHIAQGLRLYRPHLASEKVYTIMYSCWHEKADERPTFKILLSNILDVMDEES
With `O=C1NC(=O)/C(=C/c2ccc3c(c2)OC(F)(F)O3)S1`, the residual activity was 94.3%.
For `N#CC(C#N)=C(N)/C(C#N)=C/c1ccc(O)cc1`, the residual activity was 99.7%.
Still for that read-out and setting: the value for `COc1cc2ncnc(Nc3cccc(Cl)c3)c2cc1OC` was 76.7%.

The target in another assay is CDK1 CCNB1 (human) (UniProt P06493+P14635). Described as above. Particulars: compound 0.5 µM; ATP 10 µM.
Regarding `O=C1NC(=O)/C(=C/c2ccc3c(c2)OC(F)(F)O3)S1`, the residual activity was determined as 99.6%.
Still for that read-out and setting: the figure for `N#CC(C#N)=C(N)/C(C#N)=C/c1ccc(O)cc1` is 111%; for `COc1cc2ncnc(Nc3cccc(Cl)c3)c2cc1OC` it is 90.3%.

In the next assay the target is CDK3 CCNE1 (human) (UniProt Q00526+P24864). The description is as above. As to conditions: compound 0.5 µM; ATP 10 µM.
On to `O=C1NC(=O)/C(=C/c2ccc3c(c2)OC(F)(F)O3)S1`, for which the residual activity was 99.4%.
Same read-out and setting: the figure for `N#CC(C#N)=C(N)/C(C#N)=C/c1ccc(O)cc1` is 96.8%; for `COc1cc2ncnc(Nc3cccc(Cl)c3)c2cc1OC` it is 95.2%.

The next assay deals with CDK7 CCNH MNAT1 (human) (UniProt P50613+P51948+P51946). The description is as above. Particulars: compound 0.5 µM; ATP 10 µM.
As to `O=C1NC(=O)/C(=C/c2ccc3c(c2)OC(F)(F)O3)S1`, the residual activity is 98.3%.
The same measure, in the same setting: the figure for `N#CC(C#N)=C(N)/C(C#N)=C/c1ccc(O)cc1` is 91.2%; for `COc1cc2ncnc(Nc3cccc(Cl)c3)c2cc1OC` it is 99.9%.

The target of a further assay is CSNK1G2 (human) (UniProt P78368). The assay is described as above. Particulars: compound 0.5 µM; ATP 10 µM.
Sequence of CSNK1G2 (human) (P78368 whole entry, looked up): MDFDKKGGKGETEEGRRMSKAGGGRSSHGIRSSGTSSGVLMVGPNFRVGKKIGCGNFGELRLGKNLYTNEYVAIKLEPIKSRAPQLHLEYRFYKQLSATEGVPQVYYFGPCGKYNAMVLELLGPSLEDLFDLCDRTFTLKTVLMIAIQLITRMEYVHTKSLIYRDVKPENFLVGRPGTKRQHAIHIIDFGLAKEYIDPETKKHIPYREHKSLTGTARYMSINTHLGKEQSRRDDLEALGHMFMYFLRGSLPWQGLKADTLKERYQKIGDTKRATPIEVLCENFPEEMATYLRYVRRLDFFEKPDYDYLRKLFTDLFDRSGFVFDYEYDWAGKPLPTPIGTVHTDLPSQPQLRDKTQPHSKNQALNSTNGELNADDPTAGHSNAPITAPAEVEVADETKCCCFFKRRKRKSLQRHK
For `O=C1NC(=O)/C(=C/c2ccc3c(c2)OC(F)(F)O3)S1`, the residual activity came to 84.5%.
Same read-out and setting: the value for `N#CC(C#N)=C(N)/C(C#N)=C/c1ccc(O)cc1` was 104%.
Still for that read-out and setting: the figure for `COc1cc2ncnc(Nc3cccc(Cl)c3)c2cc1OC` is 97.1%.

The target in the next assay is CSNK1G3 (human) (UniProt Q9Y6M4). The assay is described as above. As to conditions: compound 0.5 µM; ATP 10 µM.
As for `O=C1NC(=O)/C(=C/c2ccc3c(c2)OC(F)(F)O3)S1`, the residual activity turned out to be 91.4%.
Still for that read-out and setting: the figure for `N#CC(C#N)=C(N)/C(C#N)=C/c1ccc(O)cc1` is 100%.
The same measure, in the same setting: the value for `COc1cc2ncnc(Nc3cccc(Cl)c3)c2cc1OC` was 92.4%.

The target of the next assay is DMPK (human) (UniProt Q09013). The description is as above. As to conditions: compound 0.5 µM; ATP 10 µM.
Regarding `O=C1NC(=O)/C(=C/c2ccc3c(c2)OC(F)(F)O3)S1`, the residual activity was 97.5%.
For the compound `N#CC(C#N)=C(N)/C(C#N)=C/c1ccc(O)cc1`, the residual activity was found to be 101%.
Same read-out and setting: the figure for `COc1cc2ncnc(Nc3cccc(Cl)c3)c2cc1OC` is 102%.

For a further assay, the target named is DYRK1A (human) (UniProt Q13627). Described as above. Particulars: compound 0.5 µM; ATP 10 µM.
With `O=C1NC(=O)/C(=C/c2ccc3c(c2)OC(F)(F)O3)S1`, the residual activity is 84.6%.
Same read-out and setting: the value for `N#CC(C#N)=C(N)/C(C#N)=C/c1ccc(O)cc1` was 95.9%; that for `COc1cc2ncnc(Nc3cccc(Cl)c3)c2cc1OC` was 90.7%.

In a further assay the target is DYRK4 (human) (UniProt Q9NR20). Described as above. Particulars: compound 0.5 µM; ATP 10 µM.
On to `O=C1NC(=O)/C(=C/c2ccc3c(c2)OC(F)(F)O3)S1`, for which the residual activity came out at 97.7%.
`N#CC(C#N)=C(N)/C(C#N)=C/c1ccc(O)cc1`: the residual activity is 107%.
Same read-out and setting: the value for `COc1cc2ncnc(Nc3cccc(Cl)c3)c2cc1OC` was 91.7%.

For a further assay, the target named is EPHA1 (human) (UniProt P21709). Described as above. Particulars: compound 0.5 µM; ATP 10 µM.
`O=C1NC(=O)/C(=C/c2ccc3c(c2)OC(F)(F)O3)S1`: the residual activity amounted to 90.2%.
In the case of `N#CC(C#N)=C(N)/C(C#N)=C/c1ccc(O)cc1`, the residual activity is 103%.
On to `COc1cc2ncnc(Nc3cccc(Cl)c3)c2cc1OC`, for which the residual activity is 81.7%.

For another assay, the target named is FES (human) (UniProt P07332). Described as above. As to conditions: compound 0.5 µM; ATP 10 µM.
For `O=C1NC(=O)/C(=C/c2ccc3c(c2)OC(F)(F)O3)S1`, the residual activity is 98.3%.
Still for that read-out and setting: the value for `N#CC(C#N)=C(N)/C(C#N)=C/c1ccc(O)cc1` was 101%.
Same read-out and setting: the figure for `COc1cc2ncnc(Nc3cccc(Cl)c3)c2cc1OC` is 104%.

The target of the next assay is FLT1 (human) (UniProt P17948). The description is as above. Particulars: compound 0.5 µM; ATP 10 µM.
Regarding `O=C1NC(=O)/C(=C/c2ccc3c(c2)OC(F)(F)O3)S1`, the residual activity is 81.5%.
As to `N#CC(C#N)=C(N)/C(C#N)=C/c1ccc(O)cc1`, the residual activity worked out at 90.7%.
The same measure, in the same setting: the value for `COc1cc2ncnc(Nc3cccc(Cl)c3)c2cc1OC` was 74.4%.

In the next assay the target is GRK5 (human) (UniProt P34947). The description is as above. Particulars: compound 0.5 µM; ATP 10 µM.
Take `O=C1NC(=O)/C(=C/c2ccc3c(c2)OC(F)(F)O3)S1`: the residual activity came out at 105%.
Consider `N#CC(C#N)=C(N)/C(C#N)=C/c1ccc(O)cc1`, for which the residual activity came to 113%.
Still for that read-out and setting: the figure for `COc1cc2ncnc(Nc3cccc(Cl)c3)c2cc1OC` is 105%.

The target in another assay is GRK6 (human) (UniProt P43250). The assay is described as above. As to conditions: compound 0.5 µM; ATP 10 µM.
Regarding `O=C1NC(=O)/C(=C/c2ccc3c(c2)OC(F)(F)O3)S1`, the residual activity was determined as 95.4%.
Still for that read-out and setting: the value for `N#CC(C#N)=C(N)/C(C#N)=C/c1ccc(O)cc1` was 107%; that for `COc1cc2ncnc(Nc3cccc(Cl)c3)c2cc1OC` was 96.8%.

In a further assay the target is IGF1R (human) (UniProt P08069). The description is as above. As to conditions: compound 0.5 µM; ATP 10 µM.
`O=C1NC(=O)/C(=C/c2ccc3c(c2)OC(F)(F)O3)S1`: the residual activity stood at 101%.
The same measure, in the same setting: the figure for `N#CC(C#N)=C(N)/C(C#N)=C/c1ccc(O)cc1` is 90.6%; for `COc1cc2ncnc(Nc3cccc(Cl)c3)c2cc1OC` it is 75.9%.

The target of the next assay is INSRR (human) (UniProt P14616). Described as above. Particulars: compound 0.5 µM; ATP 10 µM.
Sequence of INSRR (human) (P14616 whole entry, looked up): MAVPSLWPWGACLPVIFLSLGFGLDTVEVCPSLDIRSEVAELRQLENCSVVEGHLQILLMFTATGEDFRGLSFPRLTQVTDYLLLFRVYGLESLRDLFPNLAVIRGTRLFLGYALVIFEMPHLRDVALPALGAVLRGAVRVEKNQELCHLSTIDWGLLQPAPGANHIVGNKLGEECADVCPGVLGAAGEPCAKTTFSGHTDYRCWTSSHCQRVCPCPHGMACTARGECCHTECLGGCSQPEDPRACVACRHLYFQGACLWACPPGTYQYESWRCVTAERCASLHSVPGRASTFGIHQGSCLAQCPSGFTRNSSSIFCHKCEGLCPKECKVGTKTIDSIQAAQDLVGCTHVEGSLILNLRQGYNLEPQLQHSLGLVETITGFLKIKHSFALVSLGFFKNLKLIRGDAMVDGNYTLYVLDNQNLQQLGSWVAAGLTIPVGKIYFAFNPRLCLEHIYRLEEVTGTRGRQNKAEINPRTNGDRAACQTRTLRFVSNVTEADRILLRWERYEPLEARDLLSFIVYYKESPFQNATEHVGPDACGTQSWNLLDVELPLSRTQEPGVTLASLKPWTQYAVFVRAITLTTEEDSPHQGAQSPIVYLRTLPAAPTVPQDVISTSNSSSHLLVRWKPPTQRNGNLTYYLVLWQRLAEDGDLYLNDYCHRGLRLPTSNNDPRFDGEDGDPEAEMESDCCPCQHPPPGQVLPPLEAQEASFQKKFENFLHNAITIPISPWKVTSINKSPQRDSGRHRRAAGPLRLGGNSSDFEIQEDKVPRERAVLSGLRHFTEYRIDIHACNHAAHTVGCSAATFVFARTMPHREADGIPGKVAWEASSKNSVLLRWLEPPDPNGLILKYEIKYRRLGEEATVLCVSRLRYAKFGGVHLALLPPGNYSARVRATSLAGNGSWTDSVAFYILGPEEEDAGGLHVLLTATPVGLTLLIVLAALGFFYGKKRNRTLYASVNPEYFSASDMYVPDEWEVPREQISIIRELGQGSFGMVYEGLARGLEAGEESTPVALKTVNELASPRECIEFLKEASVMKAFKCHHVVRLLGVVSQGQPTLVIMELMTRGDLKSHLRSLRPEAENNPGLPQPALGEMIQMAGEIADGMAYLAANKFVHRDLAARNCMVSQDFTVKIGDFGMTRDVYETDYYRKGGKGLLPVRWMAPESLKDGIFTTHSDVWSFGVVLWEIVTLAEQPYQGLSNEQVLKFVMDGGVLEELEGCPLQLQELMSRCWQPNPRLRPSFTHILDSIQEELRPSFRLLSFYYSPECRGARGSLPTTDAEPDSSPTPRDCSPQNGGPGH
As to `O=C1NC(=O)/C(=C/c2ccc3c(c2)OC(F)(F)O3)S1`, the residual activity is 110%.
On the same count and under the same terms, the value for `N#CC(C#N)=C(N)/C(C#N)=C/c1ccc(O)cc1` was 99.9%.
On to `COc1cc2ncnc(Nc3cccc(Cl)c3)c2cc1OC`, for which the residual activity is 99%.

A further assay deals with KDR (human) (UniProt P35968). The description is as above. As to conditions: compound 0.5 µM; ATP 10 µM.
Sequence of KDR (human) (P35968 whole entry, looked up): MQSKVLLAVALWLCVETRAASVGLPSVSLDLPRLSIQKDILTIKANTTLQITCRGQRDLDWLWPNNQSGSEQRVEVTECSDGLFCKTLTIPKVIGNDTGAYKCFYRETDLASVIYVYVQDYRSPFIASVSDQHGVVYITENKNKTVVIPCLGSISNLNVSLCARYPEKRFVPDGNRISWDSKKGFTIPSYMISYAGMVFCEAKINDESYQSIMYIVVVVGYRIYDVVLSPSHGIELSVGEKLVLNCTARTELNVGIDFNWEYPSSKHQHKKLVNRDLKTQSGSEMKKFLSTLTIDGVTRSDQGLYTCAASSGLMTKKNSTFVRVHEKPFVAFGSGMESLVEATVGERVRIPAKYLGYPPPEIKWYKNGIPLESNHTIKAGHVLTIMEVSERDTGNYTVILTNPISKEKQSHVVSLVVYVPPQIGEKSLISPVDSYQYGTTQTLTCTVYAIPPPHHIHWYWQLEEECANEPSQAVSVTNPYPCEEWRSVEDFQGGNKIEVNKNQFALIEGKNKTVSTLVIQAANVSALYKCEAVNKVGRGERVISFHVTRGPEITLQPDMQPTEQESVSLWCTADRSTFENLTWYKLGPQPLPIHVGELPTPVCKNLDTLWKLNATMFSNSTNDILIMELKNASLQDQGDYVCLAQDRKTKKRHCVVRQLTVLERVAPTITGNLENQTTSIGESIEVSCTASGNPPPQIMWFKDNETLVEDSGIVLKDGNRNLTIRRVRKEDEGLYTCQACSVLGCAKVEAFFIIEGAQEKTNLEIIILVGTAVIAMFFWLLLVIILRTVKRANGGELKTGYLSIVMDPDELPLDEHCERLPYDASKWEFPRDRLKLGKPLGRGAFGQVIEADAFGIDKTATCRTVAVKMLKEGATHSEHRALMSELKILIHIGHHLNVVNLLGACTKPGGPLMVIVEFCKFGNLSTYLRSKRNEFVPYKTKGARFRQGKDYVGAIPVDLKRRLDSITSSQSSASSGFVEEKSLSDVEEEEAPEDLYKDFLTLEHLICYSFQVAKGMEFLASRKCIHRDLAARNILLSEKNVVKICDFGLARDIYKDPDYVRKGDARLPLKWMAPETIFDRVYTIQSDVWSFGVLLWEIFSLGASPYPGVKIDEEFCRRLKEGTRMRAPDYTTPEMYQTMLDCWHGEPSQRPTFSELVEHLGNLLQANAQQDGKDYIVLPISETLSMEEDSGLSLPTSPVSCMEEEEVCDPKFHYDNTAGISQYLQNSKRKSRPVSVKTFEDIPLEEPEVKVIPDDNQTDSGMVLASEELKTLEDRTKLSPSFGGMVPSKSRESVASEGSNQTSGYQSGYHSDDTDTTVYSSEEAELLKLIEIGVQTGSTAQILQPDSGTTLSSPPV
Turning to `O=C1NC(=O)/C(=C/c2ccc3c(c2)OC(F)(F)O3)S1`, the residual activity stood at 94.6%.
On the same count and under the same terms, the value for `N#CC(C#N)=C(N)/C(C#N)=C/c1ccc(O)cc1` was 97.2%; that for `COc1cc2ncnc(Nc3cccc(Cl)c3)c2cc1OC` was 74.7%.
